One assay concerns the target T1, GST-Xa-hAAK1 (Homo sapiens, UniProt Q2M2I8).
T1 construct: made in house
The experiment in a line: AAK1 Kinase Assay (Caliper LabChip, fluoresceinated peptide substrate). In kind it is biochemical. The following applies: ATP 22 μM; listed as IC50 ranges. How it is done: The assays were performed in U-bottom 384-well plates. The final assay volume was 30 μl prepared from 15 μl additions of enzyme and substrates (fluoresceinated peptide (5-FAM)-Aha-[…]-NH2 and ATP) and test compounds in assay buffer (10 mM Tris-HCL pH 7.4, 10 mM MgCl2, 0.01% Tween-20 and 1.0 mM DTT). The reactions were initiated by the combination of bacterially expressed, GST-Xa-hAAK1 with substrates and test compounds. The reactions were incubated at room temperature for 3 hours and terminated by adding 60 μl of 35 mM EDTA buffer to each sample. The reactions were analyzed on the Caliper LabChip 3000 (Caliper, Hopkinton, Mass.) by electrophoretic separation of the fluorescent substrate and phosphorylated product. […] The final concentration of reagents in the assays are ATP, 22 μM; (5-FAM)-Aha-[…]-NH2, 1.5 μM; GST-Xa-hAAK1, 3.5 nM; and DMSO, 1.6%. Dose response curves were generated to determine the concentration required inhibiting 50% of kinase activity (IC50). Compounds were dissolved at 10 mM in dimethylsulfoxide (DMSO) and evaluated at eleven concentrations. IC50 values were derived by non-linear regression analysis.

The target in another assay is T2, AAK1 (full length human) (Homo sapiens, UniProt Q2M2I8).
T2 construct: HA; expressed in transfected cells; host or cells: HEK293F
The experiment in a line: HEK281 Cell-Based Assay (HEK293F cells transfected with AAK1 and AP2M1; phospho-mu2 Western blot). The following applies: 3 h, listed as IC50 ranges. How it is done: HEK293F cells were cultured in media containing DMEM (Gibco, cat. #11965), 10% FBS (SAFC Biosciences, cat. #12103C), 1× GPS (glutamine, penicillin and streptomycin). On day one, cells were plated on a 10 cm dish so that they are ˜80% confluent at time of transfection. Roughly 12 million cells were in a 10 cm dish at time of transfection. On day two, each dish was transfected with 48 ug DNA and 144 μl Lipofectamine 2000 (Invitrogen, cat. #11668-019). The DNA was comprised of a mixture (per 10 cm dish) containing 3 ug AAK1/HA/pIRES (full length human, NCBI accession no. NP_055726.2), 45 μg Flag/AP2MI/pcDNA (full length human), and 1.5 ml OPTI-MEM. The Lipofectamine 2000 is made up of a mixture (per 10 cm dish) containing 144 μl Lipofectamine 2000 and 1.5 ml OPTI-MEM. Each mixture was transferred to individual 15 ml tubes and incubated at RT for 5 minutes, and then the two mixes were combined and incubated at RT for 20 minutes. Growth media was then aspirated from each 10 cm plate and replaced with 10 ml of DMEM+10% FBS (no GPS). Finally, 3 ml DNA/Lipofectamine mix was added to each 10 cm dish and mix gently followed by incubate of plate overnight at 37° C. and 5% CO2.
On day three, compounds were diluted in 100% DMSO at 1000× final concentration, followed by 3-fold serial dilutions for a total of 5 concentrations tested. Four compounds were tested per 10 cm dish. One ul of each compound dilution was then pipetted into a deep-well, 96-well plate, followed by addition of 500 μl DMEM+0.5% FBS into each well for a 2× final concentration of each compound. Cells were resuspended in a 10 cm dish by simple pipetting (HEK293 cells come off the plate that easy at this point) and then transferred to a 50 ml conical tube and pelleted by centrifugation at 1000 rpm for 5 min. Cell pellets were then resuspended in 2.75 ml DMEM+0.5% FBS per 10 cm dish and 100 μl of cell suspension transferred into each well of 96-well TC plate. Finally, 100 μl of 2× compound diluted in DMEM+0.5% FBS was then added into wells containing cell suspension for a 1× final concentration. Plates were then incubated at 37° C. and 5% CO2 for 3 hours followed by transferring of cell suspensions from each well into 12-tube PCR strips. The PCR strips were spun in a tip rack at 1000 rpm for 5 minutes to pellet cells and media was then removed by pipetting without disturbing the cell pellet.
To prepare for Western Blot analysis, cell pellets were resuspend in 40 ul 1× LDS-PAGE sample buffer (Invitrogen, cat. #NP0008)+2× Halt phophatase and protease inhibitor cocktail (Thermo Scientific, cat. #1861284), followed by sonicating each with microtip sonicator set at 5 for 8-10 seconds. Five ul of 10× NuPage Sample Reducing Agent (with […]) was to each sample followed by heat denaturing at 70C for 10 min on PCR machine. A total of 10 μl per sample was loaded into each lane of a 4-20% Tris-Glycine Criterion 26-well gel (Biorad, cat. #345-0034) for the phospho-mu2 blot and 10 μl per lane in a 4-12% Bis-Tris (+MES buffer) NuPAGE 26-well gel (Invitrogen, cat. #WG1403BX10) for the mu2 blot. For controls, 2 ng of phospho-mu2 or 20 ng mu2/Flag proteins were loaded in the last well of each gel. After SDS-PAGE, samples on each gel were transferred to PVDF membrane using an iBlot and membranes were blocked for one hour in TBST+5% milk, followed by wash 3× for 5-10 min with TBST. Criterion gels were probed with rabbit anti-phospho-mu2 (1:5000; a rabbit polyclonal antibody produced by New England Peptide and affinity purified at Lexicon) in TBST+5% BSA, whereas, NuPAGE gels were probed with mouse anti-Flag (1:500; Sigma, cat. #F1804) in TBST+5% milk, and these primary antibodies were incubated overnight at 4° C. on a rocker. […]
On the technique in general: Immunoblotting shows a protein as a band on a membrane.

For orientation: IC50 means the point on the concentration scale where inhibition reaches its midpoint.

T1 sequence (Q2M2I8 whole entry): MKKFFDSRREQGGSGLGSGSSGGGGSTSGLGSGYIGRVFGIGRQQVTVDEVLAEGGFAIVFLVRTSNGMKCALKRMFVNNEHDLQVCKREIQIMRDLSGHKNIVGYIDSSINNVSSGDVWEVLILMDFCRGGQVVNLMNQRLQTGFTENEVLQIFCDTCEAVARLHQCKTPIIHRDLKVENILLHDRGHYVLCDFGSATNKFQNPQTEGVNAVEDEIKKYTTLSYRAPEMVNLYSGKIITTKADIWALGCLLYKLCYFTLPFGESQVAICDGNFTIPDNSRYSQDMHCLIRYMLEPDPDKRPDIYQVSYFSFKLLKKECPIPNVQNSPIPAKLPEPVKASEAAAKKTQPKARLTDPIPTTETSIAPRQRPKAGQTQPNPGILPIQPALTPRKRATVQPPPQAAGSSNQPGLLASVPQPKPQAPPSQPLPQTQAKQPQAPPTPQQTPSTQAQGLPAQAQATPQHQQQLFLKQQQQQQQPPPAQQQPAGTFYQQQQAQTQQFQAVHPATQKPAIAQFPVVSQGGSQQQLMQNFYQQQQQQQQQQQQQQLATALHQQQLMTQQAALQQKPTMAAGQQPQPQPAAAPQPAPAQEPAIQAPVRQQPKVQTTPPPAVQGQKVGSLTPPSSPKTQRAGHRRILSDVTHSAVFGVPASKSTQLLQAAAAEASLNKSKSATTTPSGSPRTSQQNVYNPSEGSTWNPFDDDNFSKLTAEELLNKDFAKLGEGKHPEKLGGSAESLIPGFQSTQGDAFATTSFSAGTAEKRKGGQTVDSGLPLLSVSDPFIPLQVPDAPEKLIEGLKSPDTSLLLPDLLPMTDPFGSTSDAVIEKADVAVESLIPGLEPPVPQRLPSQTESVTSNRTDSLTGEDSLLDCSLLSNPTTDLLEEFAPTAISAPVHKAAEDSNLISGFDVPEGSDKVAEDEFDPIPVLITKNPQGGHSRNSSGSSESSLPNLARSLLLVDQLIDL
T2 sequence (Q2M2I8 whole entry): as above

For `COC(=O)Nc1cc2c(cn1)COc1cc(OC[C@@H](N)CC(C)C)ccc1-2` [Example 43, (S)-methyl 8-(2-amino-4-methylpentyloxy)-5H-chromeno[3,4-c]pyridin-2-ylcarbamate], the 50% inhibitory concentration (IC50) on GST-Xa-hAAK1 and against AAK1 (full length human) was 1 to 10 nM throughout.

(Values after patent US8703953B2, “Aryl ether-base kinase inhibitors” (Bristol-Myers Squibb Company, priority 2012, dated 2014).)
